Reference: patent US6514913B1, “Weed growth inhibitory compositions” (Marubeni Agrotec Corporation, priority 1998, dated 2003)

Assays:
[1] = tested on: annual bluegrass; experiment: Pot test in greenhouse, weed growth inhibition (Test Example 1); type: in vivo, Poa annua L.; details: flowable of Preparation Example 3, soil surface one day after sowing, 30 days after treatment
From the text: (§1) Plastic pots having a size of 100 m^2/3000 were filled with soil of an upland farm, and the surface of the soil was flattened. Then, the soil surfaces were sowed with weed seeds of annual bluegrass, foxtail, and flat-sedge. After sowing, the seeds were covered with soil to a height of about 5 mm. Also, the rhizomes of Cyperus brevifolius were buried to a depth of about 1 cm. One day after sowing, a predetermined amount of the flowable prepared by the method described in the Preparation Example 3 was applied to the soil surface in an amount of 250 ml/m^2 of dilution with water. Then, the pots were allowed to stand in the greenhouse, and sprinkled with water at the appropriate times. Thirty days after treatment with the composition, its growth inhibition effect was observed. The growth inhibition effect in the table was evaluated according to the following criteria:
(§2) Evaluation Criteria for Weed Growth Inhibition Effect: […]

[2] = tested on: Cyperus brevifolius; experiment: as above; type: in vivo; details: flowable of Preparation Example 3, soil surface, rhizomes buried about 1 cm, 30 days after treatment
From the text: as §1, §2

[3] = tested on: foxtail; experiment: as above; type: in vivo; details: flowable of Preparation Example 3, soil surface one day after sowing, 30 days after treatment
From the text: as §1, §2

[4] = tested on: flat-sedge; experiment: as above; type: in vivo, Cyperus microiria; details: flowable of Preparation Example 3, soil surface one day after sowing, 30 days after treatment
From the text: as §1, §2

[5] = tested on: South Japanese lawngrass; experiment: Pot test in greenhouse, lawn phytotoxicity (Test Example 2); type: in vivo, Zoysia matrella; set-up: key: −:None; ±:Very slight; +:Slight; 2+:Moderate; 3+:Heavy; ×:Dead; details: flowable of Preparation Example 3 on bred lawn sod in pots, 30 days after treatment
From the text: (§3) Plastic pots having a size of 100 m^2/5000 were filled with soil of an upland farm, and planted with a lawn sod withdrawn by a hole cutter from various bred turfs. The planted pots were bred and managed in a greenhouse for about 1 month, and then the lawn grasses were cut to the same height to use the pots as sample pots. On the day of the cutting, a predetermined amount of the flowable prepared by the method described in the Preparation Example 3 applied to the sample pots in an amount of 250 ml/m^2 of dilution with water. Then, the pots were allowed to stand in the greenhouse, and sprinkled with water at the appropriate times. Thirty days after treatment with the composition, its phytotoxicity to the lawn grasses was observed. Evaluations of the phytotoxicity to the lawn grasses in the table were made according to the following criteria:

[6] = tested on: Japanese lawngrass; experiment: as above; type: in vivo, Zoysia japonica; set-up: key: −:None; ±:Very slight; +:Slight; 2+:Moderate; 3+:Heavy; ×:Dead; details: flowable of Preparation Example 3 on bred lawn sod in pots, 30 days after treatment
From the text: as §3

[7] = tested on: Bentgrass; experiment: as above; type: in vivo, Agrostis L.; set-up: key: −:None; ±:Very slight; +:Slight; 2+:Moderate; 3+:Heavy; ×:Dead; details: flowable of Preparation Example 3 on bred lawn sod in pots, 30 days after treatment
From the text: as §3

[8] = tested on: Kentucky bluegrass; experiment: as above; type: in vivo, Poa pratensis; set-up: key: −:None; ±:Very slight; +:Slight; 2+:Moderate; 3+:Heavy; ×:Dead; details: flowable of Preparation Example 3 on bred lawn sod in pots, 30 days after treatment
From the text: as §3

[9] = tested on: Bermudagrass; experiment: as above; type: in vivo; set-up: key: −:None; ±:Very slight; +:Slight; 2+:Moderate; 3+:Heavy; ×:Dead; details: flowable of Preparation Example 3 on bred lawn sod in pots, 30 days after treatment
From the text: as §3

[10] = tested on: Perennial ryegrass; experiment: as above; type: in vivo, Lolium SPP.; set-up: key: −:None; ±:Very slight; +:Slight; 2+:Moderate; 3+:Heavy; ×:Dead; details: flowable of Preparation Example 3 on bred lawn sod in pots, 30 days after treatment
From the text: as §3

[11] = tested on: Tall fescue; experiment: as above; type: in vivo, Festuca arundinacea; set-up: key: −:None; ±:Very slight; +:Slight; 2+:Moderate; 3+:Heavy; ×:Dead; details: flowable of Preparation Example 3 on bred lawn sod in pots, 30 days after treatment
From the text: as §3

[12] = tested on: annual bluegrass; experiment: Field test, lawn grass seed overseeding test, weed growth inhibition (Test Example 4); type: in vivo, Poa annua L.; details: 30 days after treatment
Description: Evaluation Criteria for Weed Growth Inhibition Effect:
A land of breeding of South Japanese lawngrass was divided into plots of 1 m^2 (1×1 m), and seeds of perennial ryegrass or tall fescue, and seeds of annual bluegrass as a weed were sowed on the entire surface of each plot. On the day of sowing, a predetermined amount of the flowable prepared by the method described in the Preparation Example 3 was applied in an amount of 250 ml/m^2 of dilution with water. Thirty days after treatment with the composition, its weed growth inhibition effect and lawn phytotoxicity were observed. Evaluations of the weed growth inhibition effect and lawn phytotoxicity in the table were made according to mentioned criteria.

[13] = 50 g active ingredient/1000 m^2
[14] = 100 g active ingredient/1000 m^2
[15] = 250 g active ingredient/1000 m^2
[16] = 500 g active ingredient/1000 m^2
[17] = 750 g active ingredient/1000 m^2
[18] = 1000 g active ingredient/1000 m^2
[19] = 2000 g active ingredient/1000 m^2

CC(C)(NC(=O)NCc1ccccc1Cl)c1ccccc1 [cumyluron, 1-(2-chlorobenzyl)-3-(1-methyl-1-phenylethyl)urea]
1 (1:10% inhibition): Inhibitory effect Cyperus brevifolius [2, 13]
9 (9:90% inhibition): Inhibitory effect annual bluegrass [1, 13] | Inhibitory effect Cyperus brevifolius [2, 15] | Inhibitory effect foxtail [3, 13]
−: Lawn phytotoxicity South Japanese lawngrass [5, 14] | Lawn phytotoxicity South Japanese lawngrass [5, 15] | Lawn phytotoxicity South Japanese lawngrass [5, 16] | Lawn phytotoxicity South Japanese lawngrass [5, 17] | Lawn phytotoxicity South Japanese lawngrass [5, 18] | Lawn phytotoxicity South Japanese lawngrass [5, 19] | Lawn phytotoxicity Japanese lawngrass [6, 14] | Lawn phytotoxicity Japanese lawngrass [6, 15] | Lawn phytotoxicity Japanese lawngrass [6, 16] | Lawn phytotoxicity Japanese lawngrass [6, 17] | Lawn phytotoxicity Japanese lawngrass [6, 18] | Lawn phytotoxicity Japanese lawngrass [6, 19] | Lawn phytotoxicity Bent-grass [7, 14] | Lawn phytotoxicity Bent-grass [7, 15] | Lawn phytotoxicity Bent-grass [7, 16] | Lawn phytotoxicity Bent-grass [7, 17] | Lawn phytotoxicity Bent-grass [7, 18] | Lawn phytotoxicity Bent-grass [7, 19] | Lawn phytotoxicity Kentucky bluegrass [8, 14] | Lawn phytotoxicity Kentucky bluegrass [8, 15] | Lawn phytotoxicity Kentucky bluegrass [8, 16] | Lawn phytotoxicity Kentucky bluegrass [8, 17] | Lawn phytotoxicity Kentucky bluegrass [8, 18] | Lawn phytotoxicity Kentucky bluegrass [8, 19] | Lawn phytotoxicity Bermuda-grass [9, 14] | Lawn phytotoxicity Bermuda-grass [9, 15] | Lawn phytotoxicity Bermuda-grass [9, 16] | Lawn phytotoxicity Bermuda-grass [9, 17] | Lawn phytotoxicity Bermuda-grass [9, 18] | Lawn phytotoxicity Bermuda-grass [9, 19] | Lawn phytotoxicity Perennial ryegrass [10, 14] | Lawn phytotoxicity Perennial ryegrass [10, 15] | Lawn phytotoxicity Perennial ryegrass [10, 16] | Lawn phytotoxicity Perennial ryegrass [10, 17] | Lawn phytotoxicity Perennial ryegrass [10, 18] | Lawn phytotoxicity Perennial ryegrass [10, 19] | Lawn phytotoxicity Tall fescue [11, 14] | Lawn phytotoxicity Tall fescue [11, 15] | Lawn phytotoxicity Tall fescue [11, 16] | Lawn phytotoxicity Tall fescue [11, 17] | Lawn phytotoxicity Tall fescue [11, 18] | Lawn phytotoxicity Tall fescue [11, 19]
10 (10:100% inhibition): Inhibitory effect annual bluegrass [1, 14] | Inhibitory effect annual bluegrass [1, 15] | Inhibitory effect annual bluegrass [1, 16] | Inhibitory effect annual bluegrass [1, 17] | Inhibitory effect annual bluegrass [1, 18] | Inhibitory effect Cyperus brevifolius [2, 16] | Inhibitory effect Cyperus brevifolius [2, 17] | Inhibitory effect Cyperus brevifolius [2, 18] | Inhibitory effect foxtail [3, 14] | Inhibitory effect foxtail [3, 15] | Inhibitory effect foxtail [3, 16] | Inhibitory effect foxtail [3, 17] | Inhibitory effect foxtail [3, 18] | Inhibitory effect flat-sedge [4, 13] | Inhibitory effect flat-sedge [4, 14] | Inhibitory effect flat-sedge [4, 15] | Inhibitory effect flat-sedge [4, 16] | Inhibitory effect flat-sedge [4, 17] | Inhibitory effect flat-sedge [4, 18] | Inhibitory effect annual bluegrass ([12]; 100 g active ingredient/1000 m^2, flowable of Preparation Example 3 applied on the day of sowing) | Inhibitory effect annual bluegrass ([12]; 250 g active ingredient/1000 m^2, flowable of Preparation Example 3 applied on the day of sowing) | Inhibitory effect annual bluegrass ([12]; 500 g active ingredient/1000 m^2, flowable of Preparation Example 3 applied on the day of sowing) | Inhibitory effect annual bluegrass ([12]; 750 g active ingredient/1000 m^2, flowable of Preparation Example 3 applied on the day of sowing) | Inhibitory effect annual bluegrass ([12]; 1000 g active ingredient/1000 m^2, flowable of Preparation Example 3 applied on the day of sowing)
5 (5:50% inhibition): Inhibitory effect Cyperus brevifolius [2, 14]
